Assays:
STAT3 = STAT3 (Homo sapiens, UniProt P40763); settings: Schust et al. 2006; read-out: IC50, binding to STAT3; cited from earlier work
[1] = test system: MDA-MB-231 xenograft tumors; assay: MDA-MB-231 xenograft tumor growth in nude mice; format: in vivo; settings: oral gavage daily for 14 days
[2] = test system: STAT3 and pSTAT3 in MDA-MB-231 xenograft tumors; assay: IHC and Western blot of xenograft tumors; format: in vivo, mice
Description: Immunohistochemistry (IHC): Paraffin blocks of the collected tissue were sectioned into 4 μm thickness and stained with H&E as a reference. All slides were subjected to phospho-STAT3 (Y705) IHC with ABC staining method. Rabbit or mouse IgG ABC kit was purchased from Vector Laboratories (Burlingame, Calif., USA) and ABC staining reagents were purchased from Sigma Aldrich (Louis, Mo., USA). PBS was used instead of primary antibody as a negative control.

MDA-MB-231 cells = assay: Apoptosis assay (annexin V, flow cytometry); format: cell-based, human; settings: MDA-MB-231
Description: Cell Cycle Assay and Apoptosis Assay: Cell cycle and apoptosis kits (#MCH100106 and #MCH100105, Millipore, Mass.) were used. […] 24 and 48 h after drug treatment, both adherent and floating cells were collected, washed once with PBS and fixed in cold ethanol for at least 4 h before cell cycle analysis. The fixed cells were then washed twice with PBS and resuspended in 200 μL cell cycle detection reagent, incubated for 30 minutes in dark at room temperature. Cell cycle distribution was measured by the Muse Cell Analyzer with Muse™ Cell Cycle. Similarly, MDA-MB-231 cells with the same treatments were prepared for apoptosis assay. After washing with PBS, resuspended cells were incubated with 100 μL PBS containing 1% BSA and 100 μL Annexin V and dead cell detection reagent in dark for 20 minutes at room temperature. Apoptosis was measured immediately using the Muse Cell Analyzer with the Muse™ Apoptosis Program.

[3] = test system: STAT3 and pSTAT3 in MDA-MB-453 and BT474 cells; assay: Transient transfection of STAT3 expression vector and Western blot; format: cell-based, human; settings: 10 μM, 12 h
Description: Transient Transfection of STAT3 Expression Vector: Transient transfection was conducted using Fugene HD reagent (Invitrogen, N.Y., USA) per manufacturer's instructions. Briefly, MDA-MB-453 and BT474 cells were seeded in 100 mm^2 culture dishes and incubated overnight. Culture medium was changed to FBS free media 1 h prior to transfection, and 15 μg STAT3C over-expression vector (#24983, Addgene, Mass., USA), 45 μL Fugene HD together with 879 μL opti-MEM (Invitrogen, N.Y.) was added into each dish. Eight hours after transfection, the media was removed and changed to regular media containing 10% FBS. […] After 12 h treatment, total cell lysates were collected and proceeded to Western blot analysis.

[4] = test system: STAT family, STAT3-dependent genes and JAKs in MDA-MB-468 cells; assay: Western blot analysis, MDA-MB-468 cells; format: cell-based, human
[5] = test system: pSTAT3 nuclear translocation in MDA-MB-231 cells; assay: IL-6 induction of STAT3 phosphorylation and nuclear translocation; format: cell-based, human; settings: treatment for 6 h, IL-6 1 h
Description: IL-6 Induction of STAT3 Phosphorylation and Nuclear Translocation: A total of 5×10^4 MDA-MB-231 cells were seeded into each well of the chamber slides (#154526, Thermo, N.Y.) and cultured overnight. Cells were starved up to 24 h prior to the designated drug treatment. […] After stimulation with IL-6 (50 ng/mL) for 1 h, the culture media were aspirated and followed by DPBS (Gibco, Auckland, NZ) wash twice. Then cells were fixed with 4% paraformaldehyde for 10 min, followed by permeabilization using 100% methanol, blocking buffer for 1 h at room temperature, and incubation with primary antibodies at 4° C. overnight. After incubation with secondary antibody for 1 h, slides were stained with DAPI (Invitrogen, CA) for 5 min, and then anti-fade mounting media added to each chamber. Cells were then analyzed under immunofluorescence microscope with laser-scanning confocal imaging system (Nikon TS100F).

[6] = test system: STAT family, STAT3-dependent genes and JAKs in MDA-MB-231 cells; assay: Western blot analysis, MDA-MB-231 cells; format: cell-based, human
Description: Blocking STAT3 signaling in many different tumor cells leads to induce growth arrest and apoptosis (Turkson, J. et al., 2000; Bromberg, J., 2002; Zhang, X. et al., 2012).
Western Blot Analysis. Protein levels were determined by Western blot using the previously described methods (Shen, Q. et al., 2008). Total cell lysates were prepared from MDA-MB-231 cells. Protein concentrations were measured using the BCA Protein Assay Reagent (Pierce, Rockford, Ill., USA). Equal amounts of total cellular protein extract (40 μg) were resuspended in denaturing sample loading buffer (0.5 M Tris-HCl, pH 6.8, 10% SDS, 0.1% bromophenol blue, and 20% glycerol), separated by electrophoresis on a 10% polyacrylamide SDS-PAGE gel and then electrophoretically transferred to a nitrocellulose membrane (Thermo Scientific, Ill., USA) at 100 Volts for 1 h at 4° C. The membrane was then incubated in a blocking solution containing 5% non-fat milk and 1% Tween 20 in TBS for 1 h. The membrane was then incubated with antibodies specific for: phospho-STAT3-pY705 (1:3000, Epitomics, #2236-1), STAT3 (1:2000, Cell Signaling, #4904), Caspase-3-cleaved (1:2000, Epitomics, #1476-1), Cyclin D1 (1:10000, Epitomics, #2261-1) and β-actin (1:10000, Sigma, clone AC-15). An anti-rabbit or anti-mouse secondary antibody (Amersham, Piscataway, N.J.) was used at 1:4000 dilution. The Western blotted bands were visualized using ECL procedure according to the manufacturer's instructions (Amersham).

[7] = test system: MDA-MB-231 and MDA-MB-468 cells; assay: Colony formation assay; format: cell-based, human; settings: 15 days, starting at 0.625 μM
Description: Colony Formation Assay: MDA-MB-468 and MDA-MB-231 cells were seeded in 6-well plates with a density of 800-3000 cells/well, respectively. […] The culture media with the compounds were changed every 72 h. After two weeks, the wells were washed twice with PBS buffer and 2 mL of 0.01% crystal violet staining buffer was added and incubated for 10 min. The wells were then washed with PBS for 5 min for three times, and allowed to dry. Photographs were then taken and the density of the entire culture well area was digitally measured using the GelCount™ instrument (Oxford Optronix, UK). Experiments were performed in triplicate and the density data were analyzed with one-way ANOVA using GraphPad Prizm 6 software. Error bars represent standard deviation.

STAT3, sequence (P40763 whole entry, species assumed): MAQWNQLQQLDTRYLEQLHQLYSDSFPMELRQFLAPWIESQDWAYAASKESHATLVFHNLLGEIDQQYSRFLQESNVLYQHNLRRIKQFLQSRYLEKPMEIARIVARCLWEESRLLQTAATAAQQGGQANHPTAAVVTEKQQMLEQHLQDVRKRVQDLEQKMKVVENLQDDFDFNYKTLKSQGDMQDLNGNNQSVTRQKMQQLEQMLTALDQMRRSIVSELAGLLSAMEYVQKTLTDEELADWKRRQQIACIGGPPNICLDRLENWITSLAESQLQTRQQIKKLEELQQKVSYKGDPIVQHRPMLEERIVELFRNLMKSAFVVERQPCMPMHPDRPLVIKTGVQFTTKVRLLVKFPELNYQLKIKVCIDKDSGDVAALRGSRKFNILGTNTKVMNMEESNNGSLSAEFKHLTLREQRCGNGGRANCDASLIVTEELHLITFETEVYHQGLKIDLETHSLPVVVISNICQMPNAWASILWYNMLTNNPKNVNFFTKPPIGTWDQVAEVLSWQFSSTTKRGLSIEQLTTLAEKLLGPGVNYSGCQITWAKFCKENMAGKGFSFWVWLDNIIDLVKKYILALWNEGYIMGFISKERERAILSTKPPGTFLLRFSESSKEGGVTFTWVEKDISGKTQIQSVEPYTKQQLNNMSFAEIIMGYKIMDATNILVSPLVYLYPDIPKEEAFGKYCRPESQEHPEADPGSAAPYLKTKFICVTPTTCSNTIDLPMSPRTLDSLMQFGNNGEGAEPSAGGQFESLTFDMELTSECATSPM

Compound: O=[N+]([O-])c1ccc2c(c1)S(=O)(=O)C=C2 [Stattic]
- IC50 (STAT3): 5.1 µM

Compound: NCCOc1ccc(Cl)cc1C(=O)Nc1ccc([N+](=O)[O-])cc1Cl [HJC0152]
- reduction in tumor growth, 25 mg/kg [1]: approximately 80%
- pSTAT3 (Y705) level in xenograft tumors, IHC ([2]; 25 mg/kg oral): significant effect on reducing pSTAT3 level
- STAT3 and pSTAT3 (Y705 and S727) in tumor lysates, Western blot ([2]; oral gavage 14 days): decreased
- apoptosis at 1 μM (MDA-MB-231 cells): 8%
- apoptosis at 10 μM (MDA-MB-231 cells): 23%
- STAT3 and pSTAT3 levels after forced expression of STAT3 [3]: significantly decreased
- JAK3 ([4]; MDA-MB-468): minimal alterations
- STAT1 ([4]; MDA-MB-468): minimal changes
- cleaved PARP1 ([4]; MDA-MB-468): induced from 6 h
- JAK2 and pJAK2 ([4]; MDA-MB-468, 12 h, recovered at 24 h): transient down-regulation
- JAK1 protein ([4]; MDA-MB-468, 12 h and 24 h): decreased level
- Bcl-2 and cyclin D1 ([4]; MDA-MB-468, from 6 h): decreased level
- pSTAT1 at Y701 and S727 ([4]; MDA-MB-468, from 6 h, 10 μM): down-regulation
- STAT5 and pSTAT5 (Y694) ([4]; MDA-MB-468, from 12 h, 5 μM): decreased level
- STAT3 and pSTAT3 ([4]; MDA-MB-468, starting at 3 h): down-regulation
- IL-6 induced nuclear translocation of pSTAT3 [5]: blocked
- JAK1 or pJAK1 (Y1022) ([6]; MDA-MB-231): no changes
- Mcl-1 ([6]; MDA-MB-231): decrease starting from 6 h
- STAT1 and active STAT1 at Y701 or S727 ([6]; MDA-MB-231): no significant changes
- STAT2, STAT4 and STAT6 ([6]; MDA-MB-231): minimal changes
- cleaved caspase 3 ([6]; MDA-MB-231): induced at 12 h
- pSTAT3 at S727 residue ([6]; MDA-MB-231): continuous inhibition to 24 h
- STAT5 ([6]; MDA-MB-231, 5 and 10 μM): transient decrease at 6 h
- pSTAT5 ([6]; MDA-MB-231, 12 and 24 h, 5 and 10 μM): moderate decrease
- pSTAT3 at Y705 residue ([6]; MDA-MB-231, 6 h, recovered at 24 h): significantly decreased
- Bcl-xl protein and cyclin D1 ([6]; MDA-MB-231, 24 h): not altered
- JAK2 and pJAK2 (Y1007 & Y1008) ([6]; MDA-MB-231, from 6 h, 5 μM and 10 μM): apparent down-regulation
- colony formation [7]: significant suppression of colony formation
